Results on five compounds are retold here after the Kinase Knowledgebase extract (Sharma et al. 2016).

The term IC50 denotes the midpoint of a concentration-inhibition curve. Higher therefore signals weaker potency in that assay. In general, Ki refers to the dissociation constant of the complex between target and ligand, obtained from inhibition or displacement. A low value points to higher affinity. Usually inhibition stands for the share of the control response that was lost under treatment.

A value given as a limit tells only on which side of the number the result lay.

The target of assay [1] is CDK2 (UniProt P24941). The assay can be described thus: Enzyme Assay.
Assay [2] concerns the target CDK2 (UniProt P24941). The assay is described as follows: Enzyme Assay. This is another data set of the same source.
Assay [3] deals with MAPK14 (UniProt Q16539). The assay can be described thus: Inhibition of MAPK14 Kinase Activity. Conditions: concentration not given here.
Assay [4] deals with ROCK2 (UniProt O75116). The assay can be described thus: Inhibition of ROCK2 Kinase Activity. The conditions noted are these: concentration not given here.
ROCK2, sequence (O75116 whole entry, looked up): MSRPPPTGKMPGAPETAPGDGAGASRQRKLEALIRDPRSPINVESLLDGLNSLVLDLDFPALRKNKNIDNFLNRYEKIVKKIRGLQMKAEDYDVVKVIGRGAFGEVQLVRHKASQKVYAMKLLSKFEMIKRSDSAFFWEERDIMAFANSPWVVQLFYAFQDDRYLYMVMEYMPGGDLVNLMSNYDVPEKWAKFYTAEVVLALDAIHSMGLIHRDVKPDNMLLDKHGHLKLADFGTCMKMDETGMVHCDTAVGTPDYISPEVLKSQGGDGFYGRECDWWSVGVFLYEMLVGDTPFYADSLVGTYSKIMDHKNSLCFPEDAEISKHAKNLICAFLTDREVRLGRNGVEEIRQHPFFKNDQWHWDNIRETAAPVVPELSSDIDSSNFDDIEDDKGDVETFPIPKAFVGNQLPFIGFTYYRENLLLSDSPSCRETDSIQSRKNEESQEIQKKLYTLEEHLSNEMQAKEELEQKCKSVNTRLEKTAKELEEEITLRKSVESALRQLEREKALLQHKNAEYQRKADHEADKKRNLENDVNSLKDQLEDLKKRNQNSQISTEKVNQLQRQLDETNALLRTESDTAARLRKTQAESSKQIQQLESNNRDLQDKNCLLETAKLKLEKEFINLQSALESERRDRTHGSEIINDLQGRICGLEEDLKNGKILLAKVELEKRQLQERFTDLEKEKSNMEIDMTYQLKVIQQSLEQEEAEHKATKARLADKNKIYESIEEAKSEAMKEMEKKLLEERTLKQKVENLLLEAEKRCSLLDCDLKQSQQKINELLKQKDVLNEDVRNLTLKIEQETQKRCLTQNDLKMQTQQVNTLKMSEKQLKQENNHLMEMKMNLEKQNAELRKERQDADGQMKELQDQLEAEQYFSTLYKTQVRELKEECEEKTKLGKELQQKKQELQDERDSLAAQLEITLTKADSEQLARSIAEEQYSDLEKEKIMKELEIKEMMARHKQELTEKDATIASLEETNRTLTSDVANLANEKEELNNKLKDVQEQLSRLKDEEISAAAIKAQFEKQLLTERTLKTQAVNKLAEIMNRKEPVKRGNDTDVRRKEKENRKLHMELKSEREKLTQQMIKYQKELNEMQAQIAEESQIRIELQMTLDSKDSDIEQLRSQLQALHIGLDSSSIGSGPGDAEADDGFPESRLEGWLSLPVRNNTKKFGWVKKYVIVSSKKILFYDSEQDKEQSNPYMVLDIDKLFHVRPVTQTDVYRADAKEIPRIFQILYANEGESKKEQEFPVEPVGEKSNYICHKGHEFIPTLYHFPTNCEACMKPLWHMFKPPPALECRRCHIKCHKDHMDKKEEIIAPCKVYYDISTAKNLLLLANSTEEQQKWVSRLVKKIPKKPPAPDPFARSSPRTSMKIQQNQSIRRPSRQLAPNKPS

MAPK14, sequence (Q16539 whole entry, looked up): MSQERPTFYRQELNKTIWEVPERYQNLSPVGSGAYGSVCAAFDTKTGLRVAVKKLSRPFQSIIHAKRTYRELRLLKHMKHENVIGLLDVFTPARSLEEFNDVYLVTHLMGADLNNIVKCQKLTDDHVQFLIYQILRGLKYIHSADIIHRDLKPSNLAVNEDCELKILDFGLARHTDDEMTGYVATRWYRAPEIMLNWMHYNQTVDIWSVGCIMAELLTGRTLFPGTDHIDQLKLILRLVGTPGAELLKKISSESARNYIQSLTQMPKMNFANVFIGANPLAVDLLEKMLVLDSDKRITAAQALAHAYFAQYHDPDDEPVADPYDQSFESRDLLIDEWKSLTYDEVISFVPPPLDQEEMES

As for `COc1ccc(Nc2nccc(-c3nc(C)c(C)s3)n2)cn1`, the figures for the IC50 in assay [1] and in assay [2] were greater than 1 µM and greater than 10 µM, respectively.

`Cc1nc(-c2ccnc(Nc3ccc(Cl)nc3)n2)sc1C`: the IC50 in assay [1] and in assay [2] was greater than 10 µM in each case.

For the compound `CCOC(=O)c1sc(-c2ccnc(Nc3ccc(Cl)cc3)n2)nc1O`, the IC50 in assay [1] was greater than 1 µM; in assay [2], greater than 10 µM.

Regarding `COc1ccc(Nc2nccc(-c3nccs3)n2)cn1`, the half-inhibitory concentration (IC50) was greater than 50 µM in assay [1] and greater than 100 µM in assay [2].

Consider `Clc1ccc(Nc2nccc(-c3nccs3)n2)cn1`, for which the IC50 is 11 µM in assay [1] and greater than 50 µM in assay [2]. In addition, the inhibition constant (Ki) was 5.5 µM in assay [1] and greater than 50 µM in assay [2]. Moreover, the inhibition turned out to be 16% in assay [3] and 13% in assay [4].
